Experimental findings from patent US20210369853A1, “TARGETED PROTEASE DEGRADATION PLATFORM” (EUBULUS BIOTHERAPEUTICS INC., priority 2018, published 2021) are described below.

SMILES strings stand for the structures.

What is called EC50 is the concentration at which the effect is half-maximal. A higher EC50 goes with weaker potency.

This experiment concerns Human Monocytic Leukemia MV4-11. The experiment can be described thus: Cell proliferation experiment (Alarm blue, 72 h, EC50). Format: cell-based. The conditions noted are these: Homo sapiens, MV4-11, MV4;11 cells. The method, then: (2.1) Cell Proliferation Experiment:
Reagents: RPMI-1640 medium, McCoy's 5A medium, IMDM medium, MEM medium, L-15 medium, fetal bovine serum, Penicillin-Streptomycin double antibody, trypsin, etc., 2-mercaptoethanol, NEAA, pyruvate, etc.
The cells were cultured in conventional ways, and the cells should be passed at least for at least 2 generations before plating. Cells at the logarithmic growth phase are collected, prepared into single cell suspensions and counted. The concentration of cells was adjusted to the desired concentration, and cells were inoculated into a 96-well cell culture plate at 100 μl per well. 100 μL of complete medium of the test compound were added to each well, set up 2 duplicates for each concentration, and diluted with a 5-fold gradient, and continue to culture for 72 h. All cells were subjected to EC50 test for corresponding samples.
The fluorescence intensity of each well was detected using the Alarm blue method, and EC50 was calculated.
EC50 was calculated according to the following formula:
Y=Max+(Min−Max)/[1+(X/EC50)×Slope]
wherein Min, Max and Slope represent the minimum, maximum and slope respectively.
For `O=C1CCC(N2Cc3c(NC(=O)CCNCCOCCOCCOCCOCCNC(=O)[C@]4(Cc5cccc(Nc6nccs6)n5)CC[C@@H](Oc5cccc(Cl)c5F)CC4)cccc3C2=O)C(=O)N1` (stereo partly shown) [UB-180808], the concentration for a half-maximal effect (EC50) lay within 100 to 1000 nM. Under `COc1cc(C(=O)NCCCNCCCCC(=O)Nc2cccc3c2CN(C2CCC(=O)NC2=O)C3=O)ccc1Nc1ncc2c(n1)N(Cc1ccc(Br)cc1)CC(C)(C)C(=O)N2C` (stereo not shown) [UB-180670] stands 100 to 1000 nM. Under `CC[C@@H]1C(=O)N(C)c2cnc(Nc3ccc(C(=O)NCCOCCNCCCC(=O)Nc4cccc5c4CN(C4CCC(=O)NC4=O)C5=O)cc3OC)nc2N1C1CCCC1` (stereo partly shown) [UB-180662] stands 10 to 100 nM. `Cc1ncsc1-c1ccc(CNC(=O)[C@@H]2C[C@@H](O)CN2C(=O)[C@@H](NC(=O)CCOCCOCCNC(=O)[C@]2(Cc3cccc(Nc4nccs4)n3)CC[C@@H](Oc3cccc(Cl)c3F)CC2)C(C)(C)C)cc1` [UB-180599] registered a concentration for a half-maximal effect (EC50) of over 1000 nM. With `O=C1CCC(N2Cc3c(NC(=O)COCCOCCOCCNCCNC(=O)[C@]4(Cc5cccc(Nc6nccs6)n5)CC[C@@H](Oc5cccc(Cl)c5F)CC4)cccc3C2=O)C(=O)N1` (stereo partly shown) [UB-180795] the figure was 100 to 1000 nM.

`CC[C@@H]1C(=O)N(C)c2cnc(Nc3ccc(C(=O)NCCNCCCC(=O)Nc4cccc5c4CN(C4CCC(=O)NC4=O)C5=O)cc3OC)nc2N1C1CCCC1` (stereo partly shown) [UB-180689] returned an EC50 of 10 to 100 nM. On to `Cc1sc2c(c1C)C(c1ccc(Cl)cc1)=N[C@@H](CC(=O)NCCOCCNCCCC(=O)Nc1cccc3c1CN(C1CCC(=O)NC1=O)C3=O)c1nnc(C)n1-2` (stereo partly shown) [UB-180656], for which the EC50 is 100 to 1000 nM. In the case of `O=C1CCC(N2Cc3c(NC(=O)CCNCCOCCOCCOCCNC(=O)[C@]4(Cc5cccc(Nc6nccs6)n5)CC[C@@H](Oc5cccc(Cl)c5F)CC4)cccc3C2=O)C(=O)N1` (stereo partly shown) [UB-180731], the EC50 was 100 to 1000 nM.

Consider `Cc1ncsc1-c1ccc(CNC(=O)[C@@H]2C[C@@H](O)CN2C(=O)[C@@H](NC(=O)CCCNCCn2cc(COCCOCCOCCNC(=O)[C@]3(Cc4cccc(Nc5nccs5)n4)CC[C@@H](Oc4cccc(Cl)c4F)CC3)nn2)C(C)(C)C)cc1` [UB-180790], for which the 50% effective concentration (EC50) is over 1000 nM. Compound `CC[C@@H]1CN(C)c2cnc(Nc3ccc(C(=O)NCCOCCNCCC(=O)Nc4cccc5c4CN(C4CCC(=O)NC4=O)C5=O)cc3OC)nc2N1C(C)C` (stereo partly shown) [UB-180706] had a half-maximal effective concentration (EC50) of 100 to 1000 nM. Under `O=C1CCC(N2Cc3c(NC(=O)CNCCOCCN4CCC(NC(=O)c5ccc(Nc6ncc7c(n6)-c6ccc(Cl)cc6C(c6c(F)cccc6F)=NC7)cc5)CC4)cccc3C2=O)C(=O)N1` (stereo not shown) [UB-180735] stands 100 to 1000 nM; under `CC[C@@H]1C(=O)N(C)c2cnc(Nc3ccc(C(=O)NCc4cn(CCNCCCC(=O)Nc5cccc6c5CN(C5CCC(=O)NC5=O)C6=O)nn4)cc3OC)nc2N1Cc1ccc(Br)cc1` (stereo partly shown) [UB-180676], 10 to 100 nM. Under `Cc1ncsc1-c1ccc(CNC(=O)[C@@H]2C[C@@H](O)CN2C(=O)[C@@H](NC(=O)CCOCCOCCOCCOCCNC(=O)c2ccc(Nc3ncc4c(n3)-c3ccc(Cl)cc3C(c3c(F)cccc3F)=NC4)cc2)C(C)(C)C)cc1` [UB-180531] stands 10 to 100 nM; under `CC[C@@H]1C(=O)N(C)c2cnc(Nc3ccc(C(=O)NC4CCN(CCNCCCCC(=O)Nc5cccc6c5CN(C5CCC(=O)NC5=O)C6=O)CC4)cc3OC)nc2N1C1CCCC1` (stereo partly shown) [UB-180684], 10 to 100 nM; under `Cc1ncsc1-c1ccc(CNC(=O)[C@@H]2C[C@@H](O)CN2C(=O)[C@@H](NC(=O)CCNCCn2cc(COCCOCCOCCNC(=O)[C@]3(Cc4cccc(Nc5nccs5)n4)CC[C@@H](Oc4cccc(Cl)c4F)CC3)nn2)C(C)(C)C)cc1` [UB-180789], over 1000 nM. Under `CC[C@@H]1c2c(C#N)ncn2-c2cnc(Nc3ccc(C(=O)NCC(=O)N[C@H](C(=O)N4C[C@H](O)C[C@H]4C(=O)NCc4ccc(-c5scnc5C)cc4)C(C)(C)C)cc3OC)nc2N1C1CCCC1` [UB-180592] stands 100 to 1000 nM. As for `Cc1ncsc1-c1ccc(CNC(=O)[C@@H]2C[C@@H](O)CN2C(=O)[C@@H](NC(=O)CNCCOCCOCCOCCNC(=O)[C@]2(Cc3cccc(Nc4nccs4)n3)CC[C@@H](Oc3cccc(Cl)c3F)CC2)C(C)(C)C)cc1` [UB-180783], the half-maximal effective concentration (EC50) was over 1000 nM. `O=C1CCC(N2Cc3c(NC(=O)CCNCCOCCN4CCC(NC(=O)c5ccc(Nc6ncc7c(n6)-c6ccc(Cl)cc6C(c6c(F)cccc6F)=NC7)cc5)CC4)cccc3C2=O)C(=O)N1` (stereo not shown) [UB-180775] gave a 50% effective concentration (EC50) of 100 to 1000 nM.

`O=C1CCC(N2Cc3c(NC(=O)CCNCCn4ncc(CNC(=O)c5ccc(Nc6ncc7c(n6)-c6ccc(Cl)cc6C(c6c(F)cccc6F)=NC7)cc5)n4)cccc3C2=O)C(=O)N1` (stereo not shown) [UB-180761] had an EC50 of over 1000 nM.

In turn, `Cc1ncsc1-c1ccc(CNC(=O)[C@@H]2C[C@@H](O)CN2C(=O)[C@@H](NC(=O)COCCOCCOCCOCCNC(=O)c2ccc(Nc3ncc4c(n3)-c3ccc(Cl)cc3C(c3c(F)cccc3F)=NC4)cc2)C(C)(C)C)cc1` [UB-180527] showed an EC50 of over 1000 nM. With `O=C1CCC(N2Cc3c(NC(=O)COCCNCCN4CCC(NC(=O)[C@]5(Cc6cccc(Nc7nccs7)n6)CC[C@@H](Oc6cccc(Cl)c6F)CC5)CC4)cccc3C2=O)C(=O)N1` (stereo partly shown) [UB-180741] the figure was over 1000 nM. With `O=C1CCC(N2Cc3c(NC(=O)COCCNCCn4cc(CNC(=O)c5ccc(Nc6ncc7c(n6)-c6ccc(Cl)cc6C(c6c(F)cccc6F)=NC7)cc5)nn4)cccc3C2=O)C(=O)N1` (stereo not shown) [UB-180732] the figure was 100 to 1000 nM; with `COc1cc(C(=O)NCCOCCOCCOCCNCCC(=O)Nc2cccc3c2CN(C2CCC(=O)NC2=O)C3=O)ccc1Nc1ncc2c(n1)N(C(C)C)[C@H](C)C(=O)N2C` (stereo partly shown) [UB-180702], 10 to 100 nM; with `O=C1CCC(N2Cc3c(NC(=O)CNCCOCCN4CCN(CCNC(=O)c5ccc(Nc6ncc7c(n6)-c6ccc(Cl)cc6C(c6c(F)cccc6F)=NC7)cc5)CC4)cccc3C2=O)C(=O)N1` (stereo not shown) [UB-180811], 100 to 1000 nM. For the compound `Cc1ncsc1-c1ccc(CNC(=O)[C@@H]2C[C@@H](O)CN2C(=O)[C@@H](NC(=O)COCCOCCOCCOCCNC(=O)[C@]2(Cc3cccc(Nc4nccs4)n3)CC[C@@H](Oc3cccc(Cl)c3F)CC2)C(C)(C)C)cc1` [UB-180580], the concentration giving a half-maximal response (EC50) lay within 100 to 1000 nM.

Turning to `CC[C@@H]1C(=O)N(C)c2cnc(Nc3ccc(C(=O)NCc4cn(CCNCC(=O)Nc5cccc6c5CN(C5CCC(=O)NC5=O)C6=O)nn4)cc3OC)nc2N1Cc1ccc(Br)cc1` (stereo partly shown) [UB-180692], the concentration for a half-maximal effect (EC50) fell in the range of 100 to 1000 nM.

In the case of `CC[C@@H]1C(=O)N(C)c2cnc(Nc3ccc(C(=O)NCCNCC(=O)Nc4cccc5c4CN(C4CCC(=O)NC4=O)C5=O)cc3OC)nc2N1Cc1ccc(Cl)s1` (stereo partly shown) [UB-180695], the 50% effective concentration (EC50) lay within 10 to 100 nM. Under `CC[C@@H]1C(=O)N(C)c2cnc(Nc3ccc(C(=O)NCc4cn(CCNCCC(=O)Nc5cccc6c5CN(C5CCC(=O)NC5=O)C6=O)nn4)cc3OC)nc2N1Cc1ccc(Br)cc1` (stereo partly shown) [UB-180679] stands 10 to 100 nM. Take `CC[C@@H]1C(=O)N(C)c2cnc(Nc3ccc(C(=O)NCCOCCOCCOCCNc4cccc5c4CN(C4CCC(=O)NC4=O)C5=O)cc3OC)nc2N1Cc1ccc(Br)cc1` (stereo partly shown) [UB-180569]: the EC50 lay in the range of 10 to 100 nM. `Cc1ncsc1-c1ccc(CNC(=O)[C@@H]2C[C@@H](O)CN2C(=O)[C@@H](NC(=O)CCNCCOCCn2cc(CNC(=O)c3ccc(Nc4ncc5c(n4)-c4ccc(Cl)cc4C(c4c(F)cccc4F)=NC5)cc3)nn2)C(C)(C)C)cc1` [UB-180784] had an EC50 of over 1000 nM.

Take `O=C1CCC(N2Cc3c(NC(=O)CCOCCNCCN4CCC(NC(=O)[C@]5(Cc6cccc(Nc7nccs7)n6)CC[C@@H](Oc6cccc(Cl)c6F)CC5)CC4)cccc3C2=O)C(=O)N1` (stereo partly shown) [UB-180769]: the half-maximal effective concentration (EC50) lay within 100 to 1000 nM. `O=C1CCC(N2Cc3c(NC(=O)CCOCCNCCN4CCC(NC(=O)c5ccc(Nc6ncc7c(n6)-c6ccc(Cl)cc6C(c6c(F)cccc6F)=NC7)cc5)CC4)cccc3C2=O)C(=O)N1` (stereo not shown) [UB-180768] yielded a half-maximal effective concentration (EC50) of 100 to 1000 nM. Under `CC[C@@H]1c2c(C#N)ncn2-c2cnc(Nc3ccc(C(=O)NCCC(=O)N[C@H](C(=O)N4C[C@H](O)C[C@H]4C(=O)NCc4ccc(-c5scnc5C)cc4)C(C)(C)C)cc3OC)nc2N1C1CCCC1` [UB-180623] stands over 1000 nM; under `CC[C@@H]1C(=O)N(C)c2cnc(Nc3ccc(C(=O)NC4CCN(CCNCCCCC(=O)Nc5cccc6c5CN(C5CCC(=O)NC5=O)C6=O)C4)cc3OC)nc2N1C1CCCC1` (stereo partly shown) [UB-180693], 10 to 100 nM; under `O=C1CCC(N2Cc3c(NC(=O)COCCNCCOCCOCCOCCNC(=O)[C@]4(Cc5cccc(Nc6nccs6)n5)CC[C@@H](Oc5cccc(Cl)c5F)CC4)cccc3C2=O)C(=O)N1` (stereo partly shown) [UB-180793], 100 to 1000 nM. With `O=C1CCC(N2Cc3c(NC(=O)CCNCCn4cc(COCCNC(=O)c5ccc(Nc6ncc7c(n6)-c6ccc(Cl)cc6C(c6c(F)cccc6F)=NC7)cc5)nn4)cccc3C2=O)C(=O)N1` (stereo not shown) [UB-180822] the figure was over 1000 nM; with `CC[C@@H]1c2c(C#N)ncn2-c2cnc(Nc3ccc(C(=O)NCc4cn(CCNCCC(=O)Nc5cccc6c5CN(C5CCC(=O)NC5=O)C6=O)nn4)cc3OC)nc2N1C1CCCC1` (stereo partly shown) [UB-180723], 100 to 1000 nM; with `Cc1ncsc1-c1ccc(CNC(=O)[C@@H]2C[C@@H](O)CN2C(=O)[C@@H](NC(=O)COCCOCCNC(=O)[C@]2(Cc3cccc(Nc4nccs4)n3)CC[C@@H](Oc3cccc(Cl)c3F)CC2)C(C)(C)C)cc1` [UB-180587], over 1000 nM.

The compound `Cc1ncsc1-c1ccc(CNC(=O)[C@@H]2C[C@@H](O)CN2C(=O)[C@@H](NC(=O)COCCCNC(=O)c2ccc(Nc3ncc4c(n3)-c3ccc(Cl)cc3C(c3c(F)cccc3F)=NC4)cc2)C(C)(C)C)cc1` [UB-180506] gave an EC50 of 100 to 1000 nM. Under `CC[C@@H]1C(=O)N(C)c2cnc(Nc3ccc(C(=O)NCCCNCCN(C)CC(=O)Nc4cccc5c4CN(C4CCC(=O)NC4=O)C5=O)cc3OC)nc2N1C1CCCC1` (stereo partly shown) [UB-180708] stands 10 to 100 nM.
